Test results reported in ChEMBL document CHEMBL1201862, “PubChem BioAssay data set” (2004).
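A five-concentration, 48-hour dose response in 96-well plates underlies each endpoint, interpolated linearly between surrounding concentrations. GI50 = concentration required for 50% inhibition of growth.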 Active and inactive are the calls of the source. Cut-off read from the data, not from the text of the source: active = GI50 up to about 1.1 µM and inactive = higher.

Assays:
Assay in all cases: DTP human tumour cell line panel, 48 h
CCRF-CEM = tested on: CCRF-CEM
HCC 2998 = tested on: HCC 2998
HL-60 = tested on: HL-60
HOP-18 = tested on: HOP-18
HOP-92 = tested on: HOP-92
KM12 = tested on: KM12
NCI-H23 = tested on: NCI-H23
OVCAR-3 = tested on: OVCAR-3
OVCAR-8 = tested on: OVCAR-8
SN12C = tested on: SN12C
U-251 = tested on: U-251
UO-31 = tested on: UO-31
NCI-H226 = tested on: NCI-H226
OVCAR-5 = tested on: OVCAR-5
SF-268 = tested on: SF-268
BT-549 = tested on: BT-549
DU-145 = tested on: DU-145
MCF7 = tested on: MCF7
PC-3 = tested on: PC-3
T47D = tested on: T47D

N#CC12CCC1C1CCCCC12N1CCSCC1 (stereo not drawn)
GI50 (CCRF-CEM): > 100 µM (inactive) | GI50 (HCC 2998): > 100 µM (inactive) | GI50 (HL-60): 16.3 µM (inactive) | GI50 (HOP-18): > 100 µM (inactive) | GI50 (HOP-92): > 100 µM (inactive) | GI50 (KM12): 92.3 µM (inactive) | GI50 (NCI-H23): > 10 µM (inactive) | GI50 (OVCAR-3): > 100 µM (inactive) | GI50 (OVCAR-8): > 100 µM (inactive) | GI50 (SN12C): > 100 µM (inactive) | GI50 (U-251): > 100 µM (inactive) | GI50 (UO-31): > 100 µM (inactive)

CC(C)C/C(CC(=O)CCC(=O)Nc1ccccc1[N+](=O)[O-])=N\NC(=O)c1cc2ccccc2cc1O
GI50 (CCRF-CEM): 9.14 µM (inactive) | GI50 (HCC 2998): 36.6 µM (inactive) | GI50 (HL-60): 23.2 µM (inactive) | GI50 (HOP-18): 21.8 µM (inactive) | GI50 (HOP-92): 64 µM (inactive) | GI50 (KM12): 67.6 µM (inactive) | GI50 (NCI-H226): 19.3 µM (inactive) | GI50 (NCI-H23): 50.7 µM (inactive) | GI50 (OVCAR-3): 26.7 µM (inactive) | GI50 (OVCAR-5): 31 µM (inactive) | GI50 (OVCAR-8): 23.1 µM (inactive) | GI50 (SF-268): 38 µM (inactive) | GI50 (SN12C): 50.6 µM (inactive) | GI50 (U-251): 39.2 µM (inactive) | GI50 (UO-31): 37 µM (inactive)

COc1cc2c(c3c1c(=O)c1ccccc1n3C)C=CC(C)(C)O2 [ACRONINE]
GI50 (CCRF-CEM): 79.1 µM (inactive) | GI50 (HL-60): 60.7 µM (inactive) | GI50 (HOP-18): 56 µM (inactive) | GI50 (HOP-92): > 100 µM (inactive) | GI50 (KM12): > 100 µM (inactive) | GI50 (NCI-H226): > 100 µM (inactive) | GI50 (NCI-H23): 33.4 µM (inactive) | GI50 (OVCAR-3): > 100 µM (inactive) | GI50 (OVCAR-5): > 100 µM (inactive) | GI50 (OVCAR-8): > 100 µM (inactive) | GI50 (SF-268): > 100 µM (inactive) | GI50 (SN12C): > 100 µM (inactive) | GI50 (U-251): > 100 µM (inactive) | GI50 (UO-31): 49.9 µM (inactive)

O=C(COC(=O)c1cccc2c(=O)c3ccccc3[nH]c12)Nc1ccccc1
GI50 (HCC 2998): > 100 µM (inactive) | GI50 (HL-60): 16.7 µM (inactive) | GI50 (HOP-18): > 100 µM (inactive) | GI50 (HOP-92): 45 µM (inactive) | GI50 (KM12): 21.1 µM (inactive) | GI50 (NCI-H226): 33.3 µM (inactive) | GI50 (NCI-H23): 19.5 µM (inactive) | GI50 (OVCAR-3): 53.2 µM (inactive) | GI50 (OVCAR-8): 37 µM (inactive) | GI50 (SF-268): > 100 µM (inactive) | GI50 (SN12C): > 100 µM (inactive) | GI50 (U-251): 71.4 µM (inactive) | GI50 (UO-31): 22.2 µM (inactive)

N#C/C(=C/c1cccnc1)C(=O)c1ccccc1
GI50 (CCRF-CEM): > 100 µM (inactive) | GI50 (HCC 2998): > 100 µM (inactive) | GI50 (HL-60): > 100 µM (inactive) | GI50 (HOP-18): > 100 µM (inactive) | GI50 (HOP-92): > 100 µM (inactive) | GI50 (KM12): > 100 µM (inactive) | GI50 (NCI-H226): > 100 µM (inactive) | GI50 (NCI-H23): > 100 µM (inactive) | GI50 (OVCAR-3): > 100 µM (inactive) | GI50 (OVCAR-5): > 100 µM (inactive) | GI50 (OVCAR-8): > 100 µM (inactive) | GI50 (SF-268): > 100 µM (inactive) | GI50 (SN12C): > 100 µM (inactive) | GI50 (U-251): > 100 µM (inactive) | GI50 (UO-31): > 100 µM (inactive)

S=c1cc(S)c2c(=S)sc3nc4ccccn4c(=S)c3c2s1
GI50 (CCRF-CEM): 32.7 µM (inactive) | GI50 (HCC 2998): 39.5 µM (inactive) | GI50 (HL-60): 36.1 µM (inactive) | GI50 (HOP-18): > 100 µM (inactive) | GI50 (HOP-92): > 100 µM (inactive) | GI50 (KM12): > 100 µM (inactive) | GI50 (NCI-H226): > 100 µM (inactive) | GI50 (NCI-H23): > 100 µM (inactive) | GI50 (OVCAR-3): 28.2 µM (inactive) | GI50 (OVCAR-5): > 100 µM (inactive) | GI50 (OVCAR-8): 33.3 µM (inactive) | GI50 (SN12C): 48.8 µM (inactive) | GI50 (U-251): 54.5 µM (inactive) | GI50 (UO-31): 72.4 µM (inactive)

CC(=O)OCC1C(=O)OCC1C(=O)N1Cc2cc3ccccc3nc2C1 (stereo not drawn)
GI50 (BT-549): 2.17 µM (inactive) | GI50 (CCRF-CEM): 0.488 µM (active) | GI50 (DU-145): 4.5 µM (inactive) | GI50 (HCC 2998): 10.4 µM (inactive) | GI50 (HL-60): 0.794 µM (active) | GI50 (HOP-18): 2.47 µM (inactive) | GI50 (HOP-92): 1.24 µM (inactive) | GI50 (KM12): 16.2 µM (inactive) | GI50 (MCF7): 1.48 µM (inactive) | GI50 (NCI-H226): 5.96 µM (inactive) | GI50 (NCI-H23): 3.39 µM (inactive) | GI50 (OVCAR-3): 1.57 µM (inactive) | GI50 (OVCAR-5): 5.69 µM (inactive) | GI50 (OVCAR-8): 3.2 µM (inactive) | GI50 (PC-3): 7.45 µM (inactive) | GI50 (SF-268): 7.41 µM (inactive) | GI50 (SN12C): 5.27 µM (inactive) | GI50 (T47D): 1.15 µM (inactive) | GI50 (U-251): 11.3 µM (inactive) | GI50 (UO-31): 3.95 µM (inactive)
